Reference: paper PMC6170555, “Synthesis of novel (E)-1-(2-(2-(4(dimethylamino) benzylidene) hydrazinyl)-4-methylthiazol-5-yl)ethanone derivatives as ecto-5′-nucleotidase inhibitors” (Royal Society Open Science, 2018)

How the values were obtained:
[1] = target: T1, h-e5′NT (Homo sapiens, UniProt P21589); experiment: Ecto-5′-nucleotidase inhibition assay (capillary electrophoresis), human enzyme; type: biochemical; conditions: for IC50 / inhibition at 100 µM: mean ± s.e.m., n = 3; for IC50: substrate AMP 500 µM; for inhibition at 100 µM: compound at 0.1 mM, read-out: h-e5′NT percentage inhibition ± s.e.m.; for inhibitory potential toward h-e5′NT after initial screening: initial screening at 0.1 mM
T1 construct: made in house; host or cells: COS-7 cells, transiently transfected; sonicated extract / membrane fraction
T1 sequence (P21589 27-574): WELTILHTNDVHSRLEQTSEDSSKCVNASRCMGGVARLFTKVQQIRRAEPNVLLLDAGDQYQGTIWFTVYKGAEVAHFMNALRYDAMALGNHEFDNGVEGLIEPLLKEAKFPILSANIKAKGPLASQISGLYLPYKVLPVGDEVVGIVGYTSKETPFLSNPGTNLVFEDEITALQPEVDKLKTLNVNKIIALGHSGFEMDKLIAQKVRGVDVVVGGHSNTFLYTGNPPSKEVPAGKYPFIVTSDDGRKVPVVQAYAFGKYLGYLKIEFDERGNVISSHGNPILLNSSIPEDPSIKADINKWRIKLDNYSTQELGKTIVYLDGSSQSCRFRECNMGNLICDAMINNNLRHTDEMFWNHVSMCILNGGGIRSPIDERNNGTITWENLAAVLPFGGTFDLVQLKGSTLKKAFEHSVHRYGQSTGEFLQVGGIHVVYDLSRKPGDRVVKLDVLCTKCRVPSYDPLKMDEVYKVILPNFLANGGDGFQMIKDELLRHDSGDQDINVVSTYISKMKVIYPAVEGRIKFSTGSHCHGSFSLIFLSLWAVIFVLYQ
Procedure: (§1) The plasmids expressing e5′NT, either rat or human, were used to transfect the COS-7 cells through lipofectamine. The confluent cells were allowed to incubate in DMEM/F-12 having plasmid DNA (6 µg) and transfecting reagent (24 µl) for 5 h at ambient temperature (37°C). To discontinue transfection, a specified volume of DMEM/F-12 was added, containing FBS (20%). These cells were then harvested after 2–3 days.
(§2) The transfected cells were separated from harvesting buffer (45 mM Tris buffer, 95 mM NaCl, and 0.1 mM PMSF, pH 7.5) through scraping, followed by washing with Tris buffer and then allowed to centrifuge by spinning at 300 r.p.m. at 4°C for 5 min [30]. Finally, the cells remained suspended in harvesting buffer solution containing aprotinin (10 µg ml^−1). As a result of sonication, the produced cellular debris was removed by cold centrifugation operated at 300 r.p.m. for 10 min. Glycerol (7.5%) was mixed with the resultant supernatant. The Bradford microplate assay was employed for estimation of protein concentration where albumin was used as a standard.
(§3) The e5′NT inhibition assay was performed with respect to our previously described procedure on P/ACE MDQ capillary electrophoresis system (Beckman Instruments, Fullerton, CA, USA) provided with UV detection system. The samples were prepared in the assay buffer (1 mM CaCl2, 10 mM Tris HCl and 2 mM MgCl2, pH 7.4) and analysed at 0.1 mM concentration. The total assay volume (100 µl) comprises sample (10 µl), 10 µl of h-e5′NT (6.94 µg ml^−1) protein extract or r-e5′NT (7.17 µg ml^−1) and 70 µl of assay buffer. The above mixture was allowed to incubate at 37°C for 10 min. Subsequently, biochemical reaction was started with the addition of substrate (10 µl) and AMP (500 µM). The mixture was incubated again for 30 min at 37°C. The enzyme-substrate reaction was stopped by thermal denaturation for the duration of 20 min by placing the mixture in a water bath at 99°C. Then, 50 µl of obtained mixture was filled into CE mini vials and injected with 0.5 psi into the capillary in 5 s, whereas 15 kV was set to split-up substrate and product peaks. […] Therefore, successive dilution of each active compound was made and different inhibitor concentrations were assayed to obtain the dose–response curve against both enzymes. All experiments were conducted thrice. The nonlinear regression analysis program (PRISM 5.0) was employed to calculate IC50 value.

[2] = target: T2, r-e5′NT (Rattus norvegicus, UniProt P21588); experiment: Ecto-5′-nucleotidase inhibition assay (capillary electrophoresis), rat enzyme; type: biochemical; conditions: for IC50 / inhibition at 100 µM: mean ± s.e.m., n = 3; for IC50: substrate AMP 500 µM; for inhibition at 100 µM: compound at 0.1 mM, read-out: r-e5′NT percentage inhibition ± s.e.m.; for inhibitory potential toward r-e5′NT after initial screening: initial screening at 0.1 mM
T2 construct: made in house; host or cells: COS-7 cells, transiently transfected; sonicated extract / membrane fraction
T2 sequence (P21588 29-576): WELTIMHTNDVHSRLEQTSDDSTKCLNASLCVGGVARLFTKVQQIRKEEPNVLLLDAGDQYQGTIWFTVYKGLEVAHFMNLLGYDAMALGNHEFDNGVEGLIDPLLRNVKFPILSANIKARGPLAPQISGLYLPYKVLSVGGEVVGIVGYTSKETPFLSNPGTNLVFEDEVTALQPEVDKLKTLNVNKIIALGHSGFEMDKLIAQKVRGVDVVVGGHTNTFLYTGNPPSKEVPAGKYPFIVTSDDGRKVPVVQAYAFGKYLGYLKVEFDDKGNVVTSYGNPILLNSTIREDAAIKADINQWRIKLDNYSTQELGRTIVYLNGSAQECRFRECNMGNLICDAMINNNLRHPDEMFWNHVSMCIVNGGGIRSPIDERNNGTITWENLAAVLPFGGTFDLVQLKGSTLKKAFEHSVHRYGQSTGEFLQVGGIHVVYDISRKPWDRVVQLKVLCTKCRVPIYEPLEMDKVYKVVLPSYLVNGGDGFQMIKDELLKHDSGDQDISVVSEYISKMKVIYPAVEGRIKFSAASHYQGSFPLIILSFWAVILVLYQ
Procedure: as §1, §2, §3

Compound	IC50 [1]	IC50 [2]	potency against h-e5′NT relative to r-e5′NT ([1]; ratio of IC50 r-e5′NT / h-e5′NT)	inhibition against h-e5′NT compared with positive control sulfamic acid ([1]; ratio of IC50 sulfamic acid / compound)	inhibition at 100 µM [1]	inhibitory potential toward h-e5′NT after initial screening [1]	inhibition at 100 µM [2]	inhibitory potential toward r-e5′NT after initial screening [2]
NS(=O)(=O)O [sulfamic acid, reference compound]	42.1 ± 7.8 µM	77.3 ± 7.01 µM	–	–	–	–	–	–
CC(=O)c1sc(N/N=C/c2ccco2)nc1C [3c, (E)-1-(2-(2-(furan-2-ylmethylene)hydrazinyl)-4-methylthiazol-5-yl)ethanone]	–	–	–	–	38.1 ± 5.47%	no inhibitory potential	15.3 ± 2.78%	no inhibitory potential
CC(=O)c1sc(N/N=C/c2cc3ccccc3[nH]2)nc1C [3f, (E)-1-(2-(2-((1H-indol-2-yl)methylene)hydrazinyl)-4-methylthiazol-5-yl)ethanone]	6.19 ± 0.32 µM	–	–	–	–	–	32.7 ± 1.62%	–
CC(=O)c1sc(N/N=C/c2ccc(C)o2)nc1C [3d, (E)-1-(4-methyl-2-(2-((5-methylfuran-2-yl)methylene)hydrazinyl)thiazol-5-yl)ethanone]	–	–	–	–	43.6 ± 1.18%	no inhibitory potential	12.3 ± 3.91%	no inhibitory potential

Continued, values first:

IC50 [1]	IC50 [2]	potency against h-e5′NT relative to r-e5′NT ([1]; ratio of IC50 r-e5′NT / h-e5′NT)	inhibition against h-e5′NT compared with positive control sulfamic acid ([1]; ratio of IC50 sulfamic acid / compound)	inhibition at 100 µM [1]	inhibitory potential toward h-e5′NT after initial screening [1]	inhibition at 100 µM [2]	inhibitory potential toward r-e5′NT after initial screening [2]	Compound
0.32 ± 0.03 µM	7.81 ± 0.89 µM	24 fold	132 fold	–	–	–	–	CC(=O)c1sc(N/N=C/c2cccnc2)nc1C [3a, (E)-1-(4-methyl-2-(2-(pyridin-3-ylmethylene)hydrazinyl)thiazol-5-yl)ethanone]
0.56 ± 0.07 µM	10.1 ± 0.58 µM	–	–	–	–	–	–	CC(=O)c1sc(N/N=C/c2ccc(N(C)C)cc2)nc1C [3b, (E)-1-(2-(2-(4-(dimethylamino)benzylidene)hydrazinyl)-4-methylthiazol-5-yl)ethanone]
3.36 ± 0.12 µM	–	–	–	–	–	10.8 ± 4.25%	–	CC(=O)c1sc(N/N=C/c2ccc[nH]2)nc1C [3e, (E)-1-(2-(2-((1H-pyrrol-2-yl)methylene)hydrazinyl)-4-methylthiazol-5-yl)ethanone]
